pIC50: −log10 of the molar value.

System in one series: not given
Assay: not given
Particulars: reported in the literature; cited from earlier work.
Take `OC1(c2ccc(Cl)cc2)c2ccccc2C2=NCCN21` (stereo not drawn) [Mazindol]: the adverse side effects result was “dry mouth, constipation, stomach discomfort and nausea/vomiting”.

Take `CCCCCCCCCCC[C@@H](C[C@@H]1OC(=O)[C@H]1CCCCCC)OC(=O)[C@H](CC(C)C)NC=O` [Xenical]: the adverse side effects entry was “fatty stools, increased stool frequency, loose stools, diarrhea and abdominal pain”.

For the next series, the target named is T1, porcine pancreatic lipase (Sus scrofa, UniProt P00591).
T1 construct: purchased Sigma
T1 sequence (P00591 1-450): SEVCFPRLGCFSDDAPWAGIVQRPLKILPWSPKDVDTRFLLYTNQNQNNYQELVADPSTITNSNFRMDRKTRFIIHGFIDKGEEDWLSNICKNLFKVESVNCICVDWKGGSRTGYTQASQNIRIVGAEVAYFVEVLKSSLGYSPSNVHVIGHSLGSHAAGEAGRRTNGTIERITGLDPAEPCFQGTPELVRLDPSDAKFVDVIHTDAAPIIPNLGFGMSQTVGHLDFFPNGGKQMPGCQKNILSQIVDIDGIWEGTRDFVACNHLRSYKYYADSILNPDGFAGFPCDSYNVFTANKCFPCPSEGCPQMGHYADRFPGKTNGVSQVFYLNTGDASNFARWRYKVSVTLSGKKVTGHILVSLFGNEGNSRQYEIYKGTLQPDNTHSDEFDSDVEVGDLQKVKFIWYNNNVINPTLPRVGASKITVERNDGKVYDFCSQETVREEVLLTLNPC
Kind of series: Lipase inhibitory activity assay (4-MUO fluorescent substrate). Particulars: method of Example 1. The class given is biochemical.
Protocol: A lipase activity assay was performed by using the oleate ester of fluorescent 4-methylumbelliferone (4-MUO) as a substrate to measure the fluorescence of 4-methylumbelliferone produced by reaction.
The buffer used for the assay was 13 mM Tris-HCl (pH 8.0) containing 150 mM NaCl, 1.36 mM CaCl2. The enzyme assay was performed using a 0.1 M solution of the substrate 4-MUO (Sigma) in DMSO diluted 1:1000 in said buffer and a solution of porcine pancreatic lipase (Sigma) prepared at 400 U/ml also in said buffer.
An enzymatic reaction was started by adding 25 μl of the lipase/buffer solution after 50 μl of the 4-MUO/buffer solution and 25 μl of distilled water (or an aqueous solution of each sample) were added and mixed in a 96-well microplate at 25° C. After the reaction was performed for 30 minutes, the reaction was stopped by adding 100 μl of a 0.1 M citrate buffer (pH 4.2) and the fluorescence of 4-methylumbelliferone produced by the reaction (excitation 355 nm, emission 460 nm) was measured using a fluorescence plate reader (Fluoroskan Asent CF from Labsystems).
The inhibitory activity of each test sample was determined as IC50(μM), i.e. the amount of the sample giving 50% inhibition of the activity of the control (distilled water).
Consider “(−)-epigallocatechin 3-O-gallate [(−)-epigallocatechin 3-O-gallate (4)]”, for which the “lipase inhibitory activity (in words)” value is listed as “strongest activity among the major catechins”.

Still in this series, the particulars now being: porcine pancreatic lipase, 4-MUO substrate, 25° C., 30 minutes, pH 8.0.
The molecule `O=C(O[C@@H]1Cc2c(O)cc(O)cc2O[C@H]1c1cc(O)c(O)c(O)c1)c1cc(O)c(O)c(O)c1` [(−)-gallocatechin 3-O-gallate (8), (−)-gallocatechin 3-O-gallate] gave a pIC50 of 6.46. Still for that read-out and setting: as for `Oc1cc(O)c2c(c1)OC(c1ccc(O)c(O)c1)C(O)C2` (single isomer, unassigned; (+)) [(+)-catechin (5), (+)-catechin], the figure is less than 3.16; as for `O=C(O[C@@H]1Cc2c(O)cc(O)cc2O[C@@H]1c1cc(O)c(O)c(O)c1-c1c([C@H]2Oc3cc(O)cc(O)c3C[C@H]2OC(=O)c2cc(O)c(O)c(O)c2)cc(O)c(O)c1O)c1cc(O)c(O)c(O)c1` [theasinensin A (11), theasinensin A], 6.85; as for `Oc1cc(O)c2c(c1)O[C@H](c1cc(O)c(O)c(O)c1)[C@@H](O)C2` [(+)-gallocatechin (7), (+)-gallocatechin], less than 3.79. The same measure, in the same setting: as for `O=c1c(O)cc([C@H]2Oc3cc(O)cc(O)c3C[C@H]2O)cc2c([C@H]3Oc4cc(O)cc(O)c4C[C@H]3O)cc(O)c(O)c12` [theaflavin (15), theaflavin], the figure is 6.97; as for `Oc1cc(O)c2c(c1)O[C@H](c1ccc(O)c(O)c1)[C@H](O)C2` [(−)-epicatechin (1), (−)-epicatechin], less than 4.67; as for `O=C(OC1Cc2c(O)cc(O)c(C(c3cc(O)c(O)c(O)c3)C(Cc3c(O)cc(O)cc3O)OC(=O)c3cc(O)c(O)c(O)c3)c2OC1c1cc(O)c(O)c(O)c1)c1cc(O)c(O)c(O)c1` (stereo not drawn) [assamicain B (10), assamicain B], 6.73.

The molecule `O=C(O[C@@H]1Cc2c(O)cc(O)cc2O[C@@H]1c1cc(O)c(O)c(O)c1-c1c([C@H]2Oc3cc(O)cc(O)c3C[C@H]2OC(=O)c2cc(O)c(O)c(O)c2)cc(O)c(O)c1O)c1cc(O)c(O)c(O)c1` [theasinensin D (13), theasinensin D] had a pIC50 of 7.01. In turn, `O=C(O[C@@H]1Cc2c(O)cc(O)cc2O[C@@H]1c1ccc(O)c(O)c1)c1cc(O)c(O)c(O)c1` [(−)-epicatechin 3-O-gallate (2), (−)-epicatechin 3-O-gallate] gave a pIC50 of 6.57. Same read-out and setting: next, `Oc1cc(O)c2c(c1)O[C@H](c1cc(O)c(O)c(O)c1)[C@H](O)C2` [(−)-epigallocatechin (3), (−)-epigallocatechin]: less than 4.69; `O=C(O[C@@H]1Cc2c(O)cc(O)cc2O[C@@H]1c1cc(O)c(O)c(O)c1-c1c([C@H]2Oc3cc(O)cc(O)c3C[C@H]2O)cc(O)c(O)c1O)c1cc(O)c(O)c(O)c1` [theasinensin B (12), theasinensin B]: 6.56. On the same count and under the same terms, as for `O=C(OC1Cc2c(O)cc(O)c(C(c3cc(O)c(O)c(O)c3)C(Cc3c(O)cc(O)cc3O)OC(=O)c3cc(O)c(O)c(O)c3)c2OC1c1cc(O)c(O)c(O)c1)c1cc(O)c(O)c(O)c1` (stereo not drawn) [assamicain A (9), assamicain A], the figure is 6.92; as for “(−)-epigallocatechin 3-O-gallate [(−)-epigallocatechin 3-O-gallate (4)]”, 6.55; as for `O=C(O[C@@H]1Cc2c(O)cc(O)cc2O[C@@H]1c1cc(O)c(O)c2c(=O)c(O)cc([C@H]3Oc4cc(O)cc(O)c4C[C@H]3O)cc12)c1cc(O)c(O)c(O)c1` [theaflavin 3′-O-gallate (16), theaflavin 3′-O-gallate], 6.95.

Take `O=C1C=C2c3c(cc(O)c4c3O[C@H](c3ccc(O)c(O)c3)[C@@H](O)C4)OC23C[C@]1(O)O[C@H]1Cc2c(O)cc(O)cc2O[C@@H]13` [dehydro-dicatechin A (14), dehydro-dicatechin A]: the negative-log IC50 (pIC50) was 5.51.

A word on the pIC50: it is −log10 of the IC50, conventionally taken in molar units.

The record behind these values is patent US8668921B2, “Lipase inhibitors” (Suntory Holdings Limited, priority 2004, dated 2014).
